How the values were obtained:
Mustela putorius furo [1] = test: Compound was evaluated for number of emetic episodes in ferrets administered perorally at 1.0 mg/kg; assay type: functional; conditions: route oral
Canis familiaris [2] = test: Compound was evaluated for protection against cisplatin-induced emesis by measuring number of emetic episodes in dogs administered perorally at 0.3 mg/kg; assay type: functional, Canis lupus familiaris; conditions: route oral
Rattus norvegicus = test: Inhibitory activity against Bezold-jarisch functional assay, inducing a transient bradycardia upon intravenous administration of 5-hydroxytryptamine-(10 ug/kg) in anesthetized rats.; conditions: read-out: ID50 (the source's name)
Canis familiaris [3] = test: Compound was evaluated for protection against cisplatin-induced emesis by measuring number of emetic episodes in dogs administered perorally at 1.0 mg/kg; assay type: functional, Canis lupus familiaris; conditions: route oral
Canis familiaris [4] = test: Compound was evaluated for protection against cisplatin-induced emesis by measuring number of emetic episodes in dogs administered intravenously at 0.03 mg/kg; assay type: functional, Canis lupus familiaris; conditions: route intravenous
Canis familiaris [5] = test: Compound was evaluated for protection against cisplatin-induced emesis by measuring number of retches in dogs administered perorally at 3.0 mg/kg; assay type: functional, Canis lupus familiaris; conditions: route oral
Canis familiaris [6] = test: No. of emetic episodes in dogs when administered perorally at 3.0 mg/kg; assay type: functional, Canis lupus familiaris; conditions: route oral
Canis familiaris [7] = test: Compound was evaluated for protection against cisplatin-induced emesis by measuring number of emetic episodes in dogs administered intravenously at 0.1 mg/kg; assay type: functional, Canis lupus familiaris; conditions: route intravenous
Canis familiaris [8] = test: Compound was evaluated for protection against cisplatin-induced emesis by measuring number of emetic episodes in dogs administered intravenously at 0.3 mg/kg; assay type: functional, Canis lupus familiaris; conditions: route intravenous
Canis familiaris [9] = test: Compound was evaluated for protection against cisplatin-induced emesis by measuring number of retches in dogs administered intravenously at 0.03 mg/kg; assay type: functional, Canis lupus familiaris; conditions: route intravenous
Mustela putorius furo [10] = test: Compound was evaluated for number of emetic episodes in ferrets administered perorally at 0.3 mg/kg; assay type: functional; conditions: route oral
Canis familiaris [11] = test: Compound was evaluated for protection against cisplatin-induced emesis by measuring number of retches in dogs administered perorally at 1.0 mg/kg; assay type: functional, Canis lupus familiaris; conditions: route oral
[12] = Compound was evaluated for number of emetic episodes in ferrets administered intravenously at 0.1 mg/kg; assay type: functional, Mustela putorius furo; conditions: route intravenous
Canis familiaris [13] = test: Compound was evaluated for protection against cisplatin-induced emesis by measuring number of retches in dogs administered intravenously at 0.1 mg/kg.; assay type: functional, Canis lupus familiaris; conditions: route intravenous
Mustela putorius furo [14] = test: Compound was evaluated for number of emetic episodes in ferrets administered perorally at 0.1 mg/kg; assay type: functional; conditions: route oral
[15] = Compound was evaluated for protection against cisplatin-induced emesis by measuring number of retches in ferrets administered perorally at 1.0 mg/kg; assay type: functional, Mustela putorius furo; conditions: route oral
Canis familiaris [16] = test: Compound was evaluated for protection against cisplatin-induced emesis by measuring number of retches in dogs administered intravenously at 0.3 mg/kg; assay type: functional, Canis lupus familiaris; conditions: route intravenous
[17] = Compound was evaluated for number of emetic episodes in ferrets administered intravenously at 0.3 mg/kg; assay type: functional, Mustela putorius furo; conditions: route intravenous
Mus musculus = test: Acute lethal toxicity in mouse at 8.4 mg/kg when administered intravenously; value = 5/10; assay type: organism-based; design: dose 8.4 mg/kg, route intravenous; conditions: in vivo, iv
[18] = Compound was evaluated for protection against cisplatin-induced emesis by measuring number of retches in ferrets administered perorally at 0.3 mg/kg; assay type: functional, Mustela putorius furo; conditions: route oral
Canis familiaris [19] = test: Compound was evaluated for protection against cisplatin-induced emesis by measuring number of retches in dogs administered perorally at 0.3 mg/kg; assay type: functional, Canis lupus familiaris; conditions: route oral
[20] = Compound was evaluated for protection against cisplatin-induced emesis by measuring number of retches in ferrets administered perorally at 0.1 mg/kg; assay type: functional, Mustela putorius furo; conditions: route oral
[21] = Compound was evaluated for number of emetic episodes in ferrets administered intravenously at 1.0 mg/kg; assay type: functional, Mustela putorius furo; conditions: route intravenous

For `Cc1nccn1CC1CCc2c(c3ccccc3n2C)C1=O` (stereo unspecified) [ONDANSETRON], the “No. of emetic episodes” value (Mustela putorius furo [1]) was 2.3, the “No. of emetic episodes” value (Canis familiaris [2]) was 9 and the ED50 (Rattus norvegicus) was 0.86 µg/kg. For the same compound, the “No. of emetic episodes” value (Canis familiaris [3]) was 2.8, the “No. of emetic episodes” value (Canis familiaris [4]) was 10.5 and the No. of retches (Canis familiaris [5]) was 22.8. The “No. of emetic episodes” value (Canis familiaris [6]) was 2, the “No. of emetic episodes” value (Canis familiaris [7]) was 2.2 and the “No. of emetic episodes” value (Canis familiaris [8]) was 4.1. The No. of retches (Canis familiaris [9]) was 118.8, the “No. of emetic episodes” value (Mustela putorius furo [10]) was 6.3 and the No. of retches (Canis familiaris [11]) was 29.8. For the same compound, the “No. of emetic episodes” value [12] was 6.3, the No. of retches [12] was 114 and the No. of retches (Canis familiaris [13]) was 9. For the same compound, the “No. of emetic episodes” value (Mustela putorius furo [14]) was 8.5, the No. of retches [15] was 39.5 and the No. of retches (Canis familiaris [16]) was 35.4. The “No. of emetic episodes” value [17] was 3.5, the No. of retches [17] was 42.5 and the Acute lethal toxicity (Mus musculus) was “Partially active”. It also gave a No. of retches [18] of 84.8, a No. of retches (Canis familiaris [19]) of 112.8 and a No. of retches [20] of 125.3. For the same compound, the “No. of emetic episodes” value [21] was 0 and the No. of retches [21] was 2.5.
